The values below come from ChEMBL document CHEMBL1151511, “Structure-based design of an inhibitor modeled at the substrate active site of aldose reductase” (Bioorg Med Chem Lett, 1997).

What is called IC50 is the midpoint of a concentration-inhibition curve. Low values mean greater potency in that assay, high ones weaker potency in that assay.

The target of test [1] is T1, Aldo-keto reductase family 1 member B1 (Bos taurus, UniProt P16116). Kind of test: Tested for inhibition of bovine lens Aldose reductase (ALR2), expressed as IC50.
The target of test [2] is T1, Aldo-keto reductase family 1 member B1. Kind of test: Inhibitory activity of compound against modified enzyme form of S-glutathionyl Aldose reductase; Inactive.
Test [3] has the same target. Kind of test: Inhibitory activity of compound against modified enzyme form of S-glutathionyl Aldose reductase.

On to `O=C(O)Cn1nc2c(cc1=O)CCc1ccccc1-2`, for which the results for the 50% inhibitory concentration (IC50) in test [1] and in test [2] were 12 µM and “Not Active”, respectively.
Take `O=C(O)Cn1nc2c(c(Cc3nc4cc(C(F)(F)F)ccc4s3)c1=O)CCc1ccccc1-2`: the IC50 turned out to be 0.15 µM in test [1] and 17 µM in test [3].
